# Results: patent publication US20250115581A1, “SUBSTITUTED PIPERIDINES AS CK1A DEGRADERS” (Monte Rosa Therapeutics, Inc., priority 2022, published 2025)
# Key:
# CK1α = molecular target: T1, CK1α (Homo sapiens, UniProt P48729+Q96SW2); assay: CK1α NanoBit Assay (HiBiT-tagged CSNK1A1 in HEK293 cells, luminescence); format: cell-based; details: 24 h
# T1 construct: HEK293 clonal lines with CRISPR KI HiBiT tag on CSNK1A1; host or cells: HEK293 clonal line, CRISPR knock-in HiBiT at the CSNK1A1 locus, stably expressing LgBiT
# Method: HEK293 clonal lines with CRISPR KI HiBiT tag on CSNK1A1 and stably expressing LgBiT protein were obtained from Promega (Madison, WI). Cells were plated at 5000 cells per well using Multiflo (BioTek) in 384-well white solid bottom plates (Corning, 3570BC) in 25 μl volume in DMEM media (DMEM, high glucose, HEPES, no phenol red (ThermoFisher Scientific, 21063029)) containing 10% FBS (Corning, 35-075-CV), 1% Penicillin/Streptomycin ((ThermoFisher Scientific, 15140-122), and 0.2% Endurazine (Nano-Glo Endurazine Live Cell Substrate (Promega, N2571)). Cells were incubated for 16 hours at 37° C., 5% CO2. Depending on experiment 25 or 75 nL of a compound at 10 mM were added into the plate using an Echo® 650 liquid handler (Labcyte) to achieve final concentration of 10 or 30 μM in wells. Cells were incubated at 37° C., 5% CO2 for 24 hours and then signal was read on a Pherastar FSX using “LUM plus” optic module.
# Data analysis was performed in Scinamic (Scinamic, Cambridge, MA). Luminescence response (R) was calculated by the formula: response=100*(S−N)/(P−N) where S is the signal of the well, N and P the mean negative and positive control values respectively of the same plate. The luminescence response was then fitted in Scinamic using a 3-parameter agonist logistic fit (hillslope=1, EC50>0, top/bottom unconstrained).
# DC50 data are reported in Table 2 for compounds in Table 1. In Table 2 below, According to the code, A represents a DC50 value of ≤0.1 μM, B represents a DC50 value >0.1 μM and ≤1 μM, C represents an DC50 value >1 μM.
# CRBN/DDB1 = CRBN/DDB1 (Homo sapiens, UniProt Q96SW2); assay: HTRF binding assay (displacement of Cy5-thalidomide probe from CRBN/DDB1); details: CRBN/DDB1 2.5 nM, Cy5-Thalidomide 100 nM, 30 min; geometric mean; read-out: HTRF_Thali_Disp_DR_geo_IC50
# Text: Binding of test compounds to CRBN/DDB1 was monitored in an HTRF assay using 1-[5-({2-[2-(2-{[2-(2,6-dioxopiperidin-3-yl)-1,3-dioxo-2,3-dihydro-1H-isoindol-4-yl]oxy}acetamido)ethoxy]ethyl}carbamoyl)pentyl]-3,3-dimethyl-2-[(1E,3E)-5-[(2E)-1,3,3-trimethyl-5-sulfo-2,3-dihydro-1H-indol-2-ylidene]penta-1,3-dien-1-yl]-3H-indol-1-ium-5-sulfonate as a fluorescent probe. In this assay, compounds displace the fluorescently labeled thalidomide-based probe bound to CRBN and fluorescence is monitored with increasing compound concentration. Assays were conducted in Greiner white 384 well HiBase plates (Cat. No 784075-25) in 10 μL total volume. A one pot detection solution of CRBN/DDB1 (2.5 nM), anti-His Terbium Cryptate Gold (1×, PerkinElmer Cat. #: 61HI2TLB), and Cy5-Thalidomide (100 nM, Tenova Cat.: T52461) was prepared in 20 mM HEPES, 20 mM NaCl, 0.2 mM TCEP, 0.2 mM EDTA, and 0.005% Tween20 was dispensed to each assay plate. Test compounds were stored in dry, ambient temperatures at 10 mM. A 10-point, 1:3 dilution series was prepared from 10 mM stock concentrations in Echo-compatible LDV plates. 10 nL of each compound dilution series was dispensed into assays wells using an Echo 650 (Labcyte inc. USA). 10 nL of 10 mM lenalidomide (Selleckchem Cat no. S1029) was transferred into the active-control wells for the assay and 10 nL of DMSO was transferred into the negative control wells. The assay was then allowed to incubate for 30 min at ambient temperature after transferring the test compounds. Plate measurements were taken on a Pherastar FSX (BMG Labtech, Germany) using the HTRF Red filter (Ex. 337 nm, em1: 620 nm, em2: 665 nm) (Flashes: 50, Integration time: 60-400 μs, Z-height: 10 mm, Ratio-multiplier: 10,000). Analysis, HTRF ratio and IC50 values were derived using KNIME analytics (KNIME Zurich) transformation and fitting within Collaborative Drug Discovery (Collaborative Drug Discovery USA) using a 4-parameter logistic fit. HTRF ratio calculation was performed using the following formula: […]
# where em665 nm represents the measured emission at 665 nm upon excitation at 337 nm and em620 nm the measured emission at 620 nm upon excitation at 337 nm. The 4 parameter logistic fitting model was performed using the following formula: […]
# where Y represents the HTRF ratio response (as defined previously), X the compound concentration in μM, Ymin the minimum response plateau, Ymax the maximum response plateau, IC50 the concentration of […] that gives a response half way between Ymin and Ymax and HillSlope the steepness of the family of curves. No fitting model constraints was applied on Ymin, or Ymax whilst IC50>0 and −0.5>HillSlope>−3 Cheng-Prusoff transformation
# Ki values were derived from the geometric mean of the IC50 values using the Cheng-Prusoff transformation:
# where [L] represents the concentration of fluorescent probe in […], Kd the affinity (binding constant) of the fluorescent probe in units of μM and IC50 the concentration of agonist that gives a response halfway between Ymin and Ymax (as described in 1.2.1)
# Analysis and IC50 values were derived using KNIME analytics (KNIME, Zurich) transformation and fitting within Collaborative Drug Discovery (Collaborative Drug Discovery, USA) as described in 1.2.1. Ki values were derived from the geometric mean of the IC50 values using the Cheng-Prusoff transformation as described in 2.2.2. Data was visualized in GraphPad Prism 8.1.2 (GraphPad, USA) and reported as mean and standard deviation. Microsoft Office Excel 2012 (Redmond, WA) was used for calculation of mean and standard deviation.
# IC50 data are reported in Table 3 for compounds in Table 1. In Table 3 below, According to the code, A represents a IC50 value of ≤0.1 μM, B represents a IC50 value >0.1 μM and ≤1 μM, C represents an IC50 value >1 μM.
# T1 sequence (P48729 whole entry): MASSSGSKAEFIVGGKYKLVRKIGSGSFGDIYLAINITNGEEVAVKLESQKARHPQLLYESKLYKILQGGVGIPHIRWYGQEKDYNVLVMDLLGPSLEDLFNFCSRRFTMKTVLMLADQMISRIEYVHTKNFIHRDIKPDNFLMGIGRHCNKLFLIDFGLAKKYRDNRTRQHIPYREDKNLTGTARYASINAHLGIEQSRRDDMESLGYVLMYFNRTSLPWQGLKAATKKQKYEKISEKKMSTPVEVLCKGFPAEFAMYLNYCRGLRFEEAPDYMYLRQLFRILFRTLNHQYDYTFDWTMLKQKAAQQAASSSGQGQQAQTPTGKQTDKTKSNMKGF
# T1 sequence (Q96SW2 whole entry): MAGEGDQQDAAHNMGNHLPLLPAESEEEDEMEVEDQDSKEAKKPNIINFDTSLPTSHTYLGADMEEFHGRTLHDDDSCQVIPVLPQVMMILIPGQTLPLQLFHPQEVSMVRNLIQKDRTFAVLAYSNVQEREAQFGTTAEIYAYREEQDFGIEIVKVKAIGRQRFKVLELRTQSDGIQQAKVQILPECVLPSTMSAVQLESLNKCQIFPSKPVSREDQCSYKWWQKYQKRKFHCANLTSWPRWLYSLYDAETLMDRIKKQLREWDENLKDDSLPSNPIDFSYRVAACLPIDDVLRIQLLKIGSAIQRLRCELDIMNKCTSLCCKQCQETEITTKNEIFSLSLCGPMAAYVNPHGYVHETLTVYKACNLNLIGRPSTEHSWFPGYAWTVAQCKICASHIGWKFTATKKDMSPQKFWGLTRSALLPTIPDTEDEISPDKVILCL
# T1 sequence (Q16531 whole entry partner): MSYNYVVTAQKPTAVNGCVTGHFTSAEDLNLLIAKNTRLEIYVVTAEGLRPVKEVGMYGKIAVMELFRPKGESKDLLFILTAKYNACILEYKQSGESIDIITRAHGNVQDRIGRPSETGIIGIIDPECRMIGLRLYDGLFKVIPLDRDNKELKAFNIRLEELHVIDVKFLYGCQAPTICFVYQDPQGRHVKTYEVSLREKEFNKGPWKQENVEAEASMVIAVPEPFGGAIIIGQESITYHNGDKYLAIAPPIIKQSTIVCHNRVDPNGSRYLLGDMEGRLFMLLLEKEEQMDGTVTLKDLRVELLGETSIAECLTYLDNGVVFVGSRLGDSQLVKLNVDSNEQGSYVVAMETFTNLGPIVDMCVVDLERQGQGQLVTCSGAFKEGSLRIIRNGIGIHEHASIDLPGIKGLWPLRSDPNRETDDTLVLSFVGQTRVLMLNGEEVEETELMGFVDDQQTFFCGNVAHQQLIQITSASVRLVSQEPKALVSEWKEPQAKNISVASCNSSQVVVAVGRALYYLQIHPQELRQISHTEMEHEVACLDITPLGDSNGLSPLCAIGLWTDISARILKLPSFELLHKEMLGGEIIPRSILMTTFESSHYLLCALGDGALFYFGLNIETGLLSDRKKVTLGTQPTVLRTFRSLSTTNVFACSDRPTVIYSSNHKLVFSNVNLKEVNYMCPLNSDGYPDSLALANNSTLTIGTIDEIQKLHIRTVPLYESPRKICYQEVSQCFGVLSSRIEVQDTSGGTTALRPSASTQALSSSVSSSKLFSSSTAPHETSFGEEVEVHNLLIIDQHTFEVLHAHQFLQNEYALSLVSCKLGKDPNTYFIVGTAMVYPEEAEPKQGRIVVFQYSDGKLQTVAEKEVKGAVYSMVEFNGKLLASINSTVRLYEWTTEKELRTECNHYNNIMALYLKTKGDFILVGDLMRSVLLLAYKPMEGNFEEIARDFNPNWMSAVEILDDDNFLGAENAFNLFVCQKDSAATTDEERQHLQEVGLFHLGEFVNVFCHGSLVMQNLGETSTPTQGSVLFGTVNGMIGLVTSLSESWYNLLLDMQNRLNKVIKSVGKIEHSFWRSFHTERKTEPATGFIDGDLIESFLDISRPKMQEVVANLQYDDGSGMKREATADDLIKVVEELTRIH
# Sequence of CRBN/DDB1 (Q96SW2 whole entry): as the sequence (Q96SW2 whole entry) above
# Sequence of CRBN/DDB1 (Q16531 whole entry partner): as the sequence (Q16531 whole entry partner) above
smiles,measurement,setting,value
"COc1ccc(-n2ccn(-c3ccc4c(c3)CN(C3CCC(=O)NC3=O)C4=O)c2=O)cc1 (stereo not shown) [Compound 102, 3-(5-(3-(4-methoxyphenyl)-2-oxo-2,3-dihydro-1H-imidazol-1-yl)-1-oxoisoindolin-2-yl) piperidine-2,6-dione]",DC50,CK1α,> 1 µM
same,IC50,CRBN/DDB1,100 to 1000 nM
"O=C1CCC(N2Cc3cc(N4CCN(c5ccccn5)C4=O)ccc3C2=O)C(=O)N1 (stereo not shown) [Compound 105, 3-(1-oxo-5-(2-oxo-3-(pyridin-2-yl)imidazolidin-1-yl)isoindolin-2-yl)piperidine-2,6-dione]",DC50,CK1α,≤ 0.1 µM
same,IC50,CRBN/DDB1,> 1000 nM
"O=C1CCC(N2Cc3cc(N4C[C@@H](C(F)(F)F)N(c5ccccc5)C4=O)ccc3C2=O)C(=O)N1 (stereo partly drawn) [Compound 106, 3-(1-oxo-5-((S)-2-oxo-3-phenyl-4-(trifluoromethyl)imidazolidin-1-yl)isoindolin-2-yl)piperidine-2,6-dione]",DC50,CK1α,0.1 to 1 µM
same,IC50,CRBN/DDB1,100 to 1000 nM
"O=C1CCC(N2Cc3cc(N4C[C@H](C(F)(F)F)N(c5ccccc5)C4=O)ccc3C2=O)C(=O)N1 (stereo partly drawn) [Compound 108, 3-(1-oxo-5-((R)-2-oxo-3-phenyl-4-(trifluoromethyl)imidazolidin-1-yl)isoindolin-2-yl)piperidine-2,6-dione]",DC50,CK1α,> 1 µM
same,IC50,CRBN/DDB1,100 to 1000 nM
"C[C@H]1CN(c2ccc3c(c2)CN(C2CCC(=O)NC2=O)C3=O)C(=O)N1c1ccccc1 (stereo partly drawn) [Compound 109, 3-(5-((S)-4-methyl-2-oxo-3-phenylimidazolidin-1-yl)-1-oxoisoindolin-2-yl) piperidine-2,6-dione]",DC50,CK1α,≤ 0.1 µM
same,IC50,CRBN/DDB1,100 to 1000 nM
"Cc1cccc(N2CCN(c3ccc4c(c3)CN(C3CCC(=O)NC3=O)C4=O)C2=O)c1 (stereo not shown) [Compound 110, 3-(1-oxo-5-(2-oxo-3-(m-tolyl)imidazolidin-1-yl)isoindolin-2-yl)piperidine-2,6-dione]",DC50,CK1α,≤ 0.1 µM
same,IC50,CRBN/DDB1,100 to 1000 nM
"O=C1CCC(N2Cc3cc(N4CCN(c5ccc(C(F)(F)F)cc5)C4=O)ccc3C2=O)C(=O)N1 (stereo not shown) [Compound 112, 3-(1-oxo-5-(2-oxo-3-(4-(trifluoromethyl)phenyl)imidazolidin-1-yl)isoindolin-2-yl)piperidine-2,6-dione]",DC50,CK1α,≤ 0.1 µM
same,IC50,CRBN/DDB1,100 to 1000 nM
"CC1C(C)N(c2ccc3c(c2)CN(C2CCC(=O)NC2=O)C3=O)C(=O)N1c1ccccc1 (stereo not shown) [Compound 113, 3-(5-(4,5-dimethyl-2-oxo-3-phenylimidazolidin-1-yl)-1-oxoisoindolin-2-yl)piperidine-2,6-dione]",DC50,CK1α,> 1 µM
same,IC50,CRBN/DDB1,100 to 1000 nM
O=C1CCC(N2Cc3cc(N4CCN(c5ccc(Cl)cc5)C4=O)ccc3C2=O)C(=O)N1 (stereo not shown) [Compound 114],DC50,CK1α,≤ 0.1 µM
same,IC50,CRBN/DDB1,100 to 1000 nM
N#Cc1ccc(N2CCN(c3ccc4c(c3)CN(C3CCC(=O)NC3=O)C4=O)C2=O)cc1 (stereo not shown) [Compound 115],DC50,CK1α,0.1 to 1 µM
same,IC50,CRBN/DDB1,100 to 1000 nM
"O=C1CCC(N2Cc3cc(N4CCN(c5cccc(C(F)(F)F)c5)C4=O)ccc3C2=O)C(=O)N1 (stereo not shown) [Compound 116, 3-(1-oxo-5-(2-oxo-3-(3-(trifluoromethyl)phenyl)imidazolidin-1-yl)isoindolin-2-yl)piperidine-2,6-dione]",DC50,CK1α,≤ 0.1 µM
same,IC50,CRBN/DDB1,100 to 1000 nM
"CC1CN(c2ccccc2)C(=O)N1c1ccc2c(c1)CN(C1CCC(=O)NC1=O)C2=O (stereo not shown) [Compound 117, 3-(5-(5-methyl-2-oxo-3-phenylimidazolidin-1-yl)-1-oxoisoindolin-2-yl)piperidine-2,6-dione]",DC50,CK1α,0.1 to 1 µM
same,IC50,CRBN/DDB1,100 to 1000 nM
"O=C1CCC(N2Cc3cc(N4CCN(c5cccc(Cl)c5)C4=O)ccc3C2=O)C(=O)N1 (stereo not shown) [Compound 118, 3-(5-(3-(3-chlorophenyl)-2-oxoimidazolidin-1-yl)-1-oxoisoindolin-2-yl)piperidine-2,6-dione]",DC50,CK1α,≤ 0.1 µM
same,IC50,CRBN/DDB1,100 to 1000 nM
"CC(C)c1cccc(N2CCN(c3ccc4c(c3)CN(C3CCC(=O)NC3=O)C4=O)C2=O)c1 (stereo not shown) [Compound 119, 3-(5-(3-(3-isopropylphenyl)-2-oxoimidazolidin-1-yl)-1-oxoisoindolin-2-yl)piperidine-2,6-dione]",DC50,CK1α,≤ 0.1 µM
same,IC50,CRBN/DDB1,100 to 1000 nM
